# Where “and” joins values, the source holds several entries; their conditions need not be identical. Equal entries are not always repeated. Where two headings read alike, the source gives them in different places.
# Tests used:
# Assay type in all cases: cell-based
# α1β1 GABAA receptors = biological target: T1, α1β1 GABAA receptors (Rattus norvegicus, UniProt P15431+P62813); test: Two electrode voltage clamp in Xenopus laevis oocytes, α1β1; details: for EC50: read-out: EC50
# T1 construct: expressed in transfected cells; host or cells: Xenopus laevis oocytes, mRNA injected
# T1 sequence (P62813 28-455): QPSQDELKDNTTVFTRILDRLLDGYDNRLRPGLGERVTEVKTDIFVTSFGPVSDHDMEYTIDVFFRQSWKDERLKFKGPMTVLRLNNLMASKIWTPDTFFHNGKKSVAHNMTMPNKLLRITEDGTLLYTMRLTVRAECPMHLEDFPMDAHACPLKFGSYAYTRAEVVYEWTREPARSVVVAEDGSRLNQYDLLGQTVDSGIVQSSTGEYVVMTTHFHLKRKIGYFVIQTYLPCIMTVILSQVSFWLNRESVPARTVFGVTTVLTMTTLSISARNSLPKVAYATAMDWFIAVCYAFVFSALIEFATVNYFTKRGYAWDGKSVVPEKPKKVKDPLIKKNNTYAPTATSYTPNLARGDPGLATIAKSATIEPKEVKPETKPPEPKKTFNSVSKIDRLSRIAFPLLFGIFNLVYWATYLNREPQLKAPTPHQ
# T1 sequence (P15431 26-474): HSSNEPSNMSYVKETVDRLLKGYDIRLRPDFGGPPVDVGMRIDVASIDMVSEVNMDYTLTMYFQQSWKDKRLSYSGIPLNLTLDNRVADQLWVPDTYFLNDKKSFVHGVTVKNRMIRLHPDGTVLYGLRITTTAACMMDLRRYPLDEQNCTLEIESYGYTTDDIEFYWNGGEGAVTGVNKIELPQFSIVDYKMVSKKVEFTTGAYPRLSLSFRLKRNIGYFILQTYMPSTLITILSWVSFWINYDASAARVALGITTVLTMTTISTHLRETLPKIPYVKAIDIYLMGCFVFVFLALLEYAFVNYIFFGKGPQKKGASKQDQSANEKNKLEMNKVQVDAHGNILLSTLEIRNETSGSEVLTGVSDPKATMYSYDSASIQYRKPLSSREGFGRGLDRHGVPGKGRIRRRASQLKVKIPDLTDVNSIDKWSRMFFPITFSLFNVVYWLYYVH
# From the text: (§1) cDNA’s of rat GABAA receptor subunits α1, α4, β1, β2, β3 and γ2S were cloned as described. cDNAs of the rat subunits α2, α3 and α5 were gifts from P. Malherbe, that of α6 and γ1 were gifts of P. Seeburg and that of δ was a gift of C. Czajkowski. The mutants were constructed using the Q5 Site-Directed Mutagenesis Kit (New England Biolabs) following manufacturer’s instruction. We used the wild-type rat β3-pCI vector as template and the primers […] and […] resulting in a substitution of amino acid N41 (AAC) to R (AGG). We used the wild-type rat β1-pCI vector as template and the primers […] and […] resulting in a substitution of amino acid R41 (CGG) to N (AAC). The mutated subunits were confirmed by sequencing.
# (§2) In vitro transcription of mRNA was based on the cDNA expression vectors encoding for rat GABAA receptor subunits α1–6, β1-3, γ1,2, δ and the two β mutants (β1R41N and β3N41R)[40]. After linearizing the cDNA vectors with appropriate restriction endonucleases, the cDNA was purified and concentrated with the DNA Clean and Contentrator ^TM Kit (Zymoresearch, Catalog No. D4005). Capped transcripts of the purified cDNA were produced using the mMESSAGE mMACHINE® T7 transcription kit (Ambion, TX, USA) and polyadenylated using the Ambion PolyA tailing kit (Ambion). After transcription and polyadenylation the RNA was purified with the MEGAclear ^TM Kit (Ambion, Catalog No. AM1908). The final RNA concentration was measured on NanoDrop® ND-1000 and finally diluted and stored in diethylpyrocarbonate-treated water at −80 °C. For the microinjection, the RNA of αβ receptor combinations was mixed at 1:1 ratio (which leads to αβ receptors that consist of predominantly 3 beta and 2 alpha subunits[27]), for αkβlγm (k = 1–3, l = 1, 3, m = 1, 2) receptors at 1:1:5 ratio, for αkβ3γ2 (k = 4–6) and αkβlδ (k = 1, 4 and 6, l = 1, 3) receptor combinations at 3:1:5 ratio.
# (§3) Mature female Xenopus laevis (Nasco, WI) were anesthetized in a bath of ice-cold 0.17% Tricain (Ethyl-m-aminobenzoate, Sigma, MO) before decapitation in full accordance with all rules of the Austrian animal protection law (see http://www.ris.bka.gv.at/Dokumente/BgblAuth/BGBLA_2012_I_114/BGBLA_2012_I_114.pdf) and the Austrian animal experiment by-laws (see https://www.ris.bka.gv.at/Dokumente/BgblAuth/BGBLA_2012_II_522/BGBLA_2012_II_522.pdf) which implement the European Directive 2010/63/EU (see http://eur-lex.europa.eu/LexUriServ/LexUriServ.do?uri=OJ:L:2010:276:0033:0079:en:PDF) into the Austrian law (all information accessed on July 27, 2016). The frog’s ovaries were transferred to ND96 medium (96 mM NaCl, 2 mM KCl, 1 mM MgCl2, 5 mM HEPES; pH 7.5). Stage 5–6 oocytes with the follicle cell layer around them were roughly dissected with forceps into packages of 10–15 cells and washed in Ca^2+-free ND96 medium. Cells were then digested with collagenase (type IA, Sigma, NO, 1 mg/mL ND96) at 18 °C shaking at 30 rpm for 30–60 minutes and gently defolliculated with the aid of a glass pipette with appropriate tip diameter and a platinum loop. Defolliculated cells were stored at 18 °C for at least 6 hours in ND96 solution containing penicillin G (10000 IU/100 mL) and streptomycin (10 mg/100 mL) in order to preselect and exclude damaged cells from further treatment. Healthy defolliculated oocytes were injected with an aqueous solution of mRNA. A total of 4.5 ng of mRNA per oocyte was injected with a Nanoject II (Drummond). After injection of mRNA, oocytes were incubated at 18 °C (ND96 + antibiotic) for 2–3 days for αβ receptors and for 3–4 days for αβγ or αβδ receptors before recording. When cells were measured at later time points, oocytes were stored at +4 °C instead of 18 °C.
# (§4) For electrophysiological recordings, oocytes were placed on a nylon-grid in a bath of Ca^2+-containing NDE solution medium [96 mM NaCl, 5 mM HEPES-NaOH (pH 7.5), 2 mM KCl, 1 mM MgCl2, 1.8 mM CaCl2].
# α1β1R41N GABAA receptors = biological target: T2, α1β1R41N GABAA receptors (Rattus norvegicus, UniProt P15431+P62813, R66N); test: Two electrode voltage clamp in Xenopus laevis oocytes, mutant α1β1R41N; details: read-out: % of control current at EC3-5
# T2 construct: expressed in transfected cells; host or cells: Xenopus laevis oocytes, mRNA injected
# T2 sequence (P62813 28-455): as the sequence (P62813 28-455) above
# T2 sequence (P15431 26-474 R66N): as the sequence (P15431 26-474) above, with R41N counted along it
# From the text: as §1, §2, §3, §4
# α1β3N41R GABAA receptors = biological target: T3, α1β3N41R GABAA receptors (Rattus norvegicus, UniProt P62813+P63079, N66R); test: Two electrode voltage clamp in Xenopus laevis oocytes, mutant α1β3N41R; details: co-applied with GABA EC3-5, read-out: EC50 values for the mutated receptors
# T3 construct: expressed in transfected cells; host or cells: Xenopus laevis oocytes, mRNA injected
# T3 sequence (P62813 28-455): as the sequence (P62813 28-455) above
# T3 sequence (P63079 26-473 N66R): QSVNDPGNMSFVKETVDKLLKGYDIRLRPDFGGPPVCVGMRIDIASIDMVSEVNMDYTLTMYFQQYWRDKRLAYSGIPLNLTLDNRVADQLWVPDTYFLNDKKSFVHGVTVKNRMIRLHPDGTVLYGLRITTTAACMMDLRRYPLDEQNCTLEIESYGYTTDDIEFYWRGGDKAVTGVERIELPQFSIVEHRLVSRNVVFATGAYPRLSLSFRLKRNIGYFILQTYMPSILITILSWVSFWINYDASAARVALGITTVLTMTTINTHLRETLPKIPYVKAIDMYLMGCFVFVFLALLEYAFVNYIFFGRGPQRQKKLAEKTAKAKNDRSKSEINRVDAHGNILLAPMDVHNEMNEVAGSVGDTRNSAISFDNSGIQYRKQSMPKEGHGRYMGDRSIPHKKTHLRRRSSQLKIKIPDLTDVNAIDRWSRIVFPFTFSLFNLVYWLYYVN
# From the text: as §1, §2, §3, §4
# α1β2 GABAA receptors = biological target: T4, α1β2 GABAA receptors (Rattus norvegicus, UniProt P62813+P63138); test: Two electrode voltage clamp in Xenopus laevis oocytes, α1β2
# T4 construct: expressed in transfected cells; host or cells: Xenopus laevis oocytes, mRNA injected
# T4 sequence (P62813 28-455): as the sequence (P62813 28-455) above
# T4 sequence (P63138 25-474 limits assumed): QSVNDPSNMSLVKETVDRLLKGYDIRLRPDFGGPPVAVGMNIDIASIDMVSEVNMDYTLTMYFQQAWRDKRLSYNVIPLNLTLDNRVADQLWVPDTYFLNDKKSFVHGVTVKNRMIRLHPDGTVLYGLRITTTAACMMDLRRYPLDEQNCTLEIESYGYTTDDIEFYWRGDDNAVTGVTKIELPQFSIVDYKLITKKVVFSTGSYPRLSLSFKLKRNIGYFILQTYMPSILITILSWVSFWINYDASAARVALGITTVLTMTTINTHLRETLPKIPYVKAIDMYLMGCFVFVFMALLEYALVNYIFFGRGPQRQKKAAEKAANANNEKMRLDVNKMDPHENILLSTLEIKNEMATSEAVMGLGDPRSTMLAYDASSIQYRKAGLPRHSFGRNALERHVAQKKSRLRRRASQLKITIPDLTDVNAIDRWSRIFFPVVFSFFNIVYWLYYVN
# From the text: as §1, §2, §3, §4
# α2β3 GABAA receptors = biological target: T5, α2β3 GABAA receptors (Rattus norvegicus, UniProt P23576+P63079); test: Two electrode voltage clamp in Xenopus laevis oocytes, α2β3
# T5 construct: expressed in transfected cells; host or cells: Xenopus laevis oocytes, mRNA injected
# T5 sequence (P23576 29-451): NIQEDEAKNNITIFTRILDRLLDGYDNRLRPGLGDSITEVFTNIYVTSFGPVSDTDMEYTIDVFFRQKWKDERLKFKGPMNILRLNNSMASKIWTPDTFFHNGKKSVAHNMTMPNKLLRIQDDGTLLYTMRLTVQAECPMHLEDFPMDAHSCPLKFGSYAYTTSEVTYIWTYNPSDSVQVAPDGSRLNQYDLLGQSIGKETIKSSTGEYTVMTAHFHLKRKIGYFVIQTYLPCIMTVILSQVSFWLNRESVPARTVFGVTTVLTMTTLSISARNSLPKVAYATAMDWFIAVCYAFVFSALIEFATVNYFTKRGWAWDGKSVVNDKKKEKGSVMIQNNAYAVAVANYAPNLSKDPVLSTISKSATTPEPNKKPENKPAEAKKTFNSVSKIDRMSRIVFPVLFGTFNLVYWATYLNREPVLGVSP
# T5 sequence (P63079 26-473): as the sequence (P63079 26-473 N66R) above, with R41N counted along it
# From the text: as §1, §2, §3, §4
# α1β3 GABAA receptors = biological target: T6, α1β3 GABAA receptors (Rattus norvegicus, UniProt P62813+P63079); test: Two electrode voltage clamp in Xenopus laevis oocytes, α1β3
# T6 construct: expressed in transfected cells; host or cells: Xenopus laevis oocytes, mRNA injected
# T6 sequence (P62813 28-455): as the sequence (P62813 28-455) above
# T6 sequence (P63079 26-473): as the sequence (P63079 26-473 N66R) above, with R41N counted along it
# From the text: as §1, §2, §3, §4
# α6β3γ2 GABAA receptors = biological target: T7, α6β3γ2 GABAA receptors (Rattus norvegicus, UniProt P30191+P63079); test: Two electrode voltage clamp in Xenopus laevis oocytes, α6β3γ2
# T7 construct: expressed in transfected cells; host or cells: Xenopus laevis oocytes, mRNA injected
# T7 sequence (P30191 20-453): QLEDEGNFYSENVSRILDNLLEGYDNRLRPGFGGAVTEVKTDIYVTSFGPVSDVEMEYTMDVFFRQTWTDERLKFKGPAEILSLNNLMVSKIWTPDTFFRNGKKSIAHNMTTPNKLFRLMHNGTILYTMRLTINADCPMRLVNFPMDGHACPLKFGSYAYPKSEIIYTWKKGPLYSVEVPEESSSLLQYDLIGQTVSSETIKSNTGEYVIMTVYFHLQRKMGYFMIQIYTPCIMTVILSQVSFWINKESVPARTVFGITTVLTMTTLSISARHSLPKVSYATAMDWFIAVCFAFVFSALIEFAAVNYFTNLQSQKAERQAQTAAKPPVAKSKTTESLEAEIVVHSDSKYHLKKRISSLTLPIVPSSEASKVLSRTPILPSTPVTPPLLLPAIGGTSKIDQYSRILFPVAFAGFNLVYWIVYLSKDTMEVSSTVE
# T7 sequence (P63079 26-473): as the sequence (P63079 26-473 N66R) above, with R41N counted along it
# T7 sequence (P18508 39-466 partner): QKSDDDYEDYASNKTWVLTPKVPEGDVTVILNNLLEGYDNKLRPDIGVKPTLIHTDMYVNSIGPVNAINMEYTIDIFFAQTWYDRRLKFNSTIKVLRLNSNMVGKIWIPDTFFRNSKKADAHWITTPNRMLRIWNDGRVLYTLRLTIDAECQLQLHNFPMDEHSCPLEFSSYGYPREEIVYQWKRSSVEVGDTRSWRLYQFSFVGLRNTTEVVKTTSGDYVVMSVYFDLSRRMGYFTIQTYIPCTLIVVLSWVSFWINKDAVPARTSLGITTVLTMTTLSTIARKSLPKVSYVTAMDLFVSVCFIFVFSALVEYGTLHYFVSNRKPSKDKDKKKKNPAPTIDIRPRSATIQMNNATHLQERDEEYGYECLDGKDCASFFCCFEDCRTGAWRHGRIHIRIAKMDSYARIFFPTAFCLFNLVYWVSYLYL
# From the text: as §1, §2, §3, §4
structure (smiles),measurement,setting,value
"Nc1ccc(-n2nc3c4cc(Cl)ccc4[nH]cc-3c2=O)cc1 [Compound 3, 8-Chloro-2-(4-aminophenyl)-2H-pyrazolo[4,3-c]quinolin-3(5H)-one]",activity at 0.01 µM,"α1β1 GABAA receptors; read-out: efficacy, % of control current (GABA EC3-5 = 100%), α1β1, 10 nM",116 ± 3.6%
same,activity at 0.3 µM,"α1β1 GABAA receptors; read-out: efficacy, % of control current (GABA EC3-5 = 100%), α1β1, 300 nM",299 ± 29.7%
same,activity at 10 µM,"α1β1 GABAA receptors; read-out: efficacy, % of control current (GABA EC3-5 = 100%), α1β1, 10 µM",403 ± 50.9%
same,Hill slope (nH),α1β1 GABAA receptors; α1β1,1.0±0.4
same,EC50,α1β1 GABAA receptors; α1β1 (α1+/β1− interface),~0.2 µM
same,EC50,"α1β1 GABAA receptors; α1β1, co-applied with GABA EC3-5",0.22 µM
same,current as % of control at 0.1 µM,α1β1R41N GABAA receptors; 100nM,70 ± 1%
same,current as % of control at 0.3 µM,α1β1R41N GABAA receptors; 300nM,65 ± 6%
same,current as % of control at 1 µM,α1β1R41N GABAA receptors; 1μM,85 ± 7%
same,current as % of control at 3 µM,α1β1R41N GABAA receptors; 3µM,100 ± 8%
same,current as % of control at 10 µM,α1β1R41N GABAA receptors; 10μM,125 ± 5%
same,current as % of control at 30 µM,α1β1R41N GABAA receptors; 30μM,110 ± 10%
same,EC50,α1β3N41R GABAA receptors,0.2 µM
same,EC50,α1β2 GABAA receptors,1.05 µM
same,activity at 30 µM,"α1β2 GABAA receptors; read-out: efficacy, % of control current (GABA EC3-5 = 100%), α1β2, 30 µM",106 ± 11.4%
same,Hill slope (nH),α1β2 GABAA receptors; α1β2,2.0±0.7
same,EC50,α2β3 GABAA receptors; read-out: EC50,5.1 µM
same,activity at 0.001 µM,"α2β3 GABAA receptors; read-out: efficacy, % of control current (GABA EC3-5 = 100%), α2β3, 1 nM",100 ± 0.1%
same,activity at 0.1 µM,"α2β3 GABAA receptors; read-out: efficacy, % of control current (GABA EC3-5 = 100%), α2β3, 100 nM",102 ± 1.2%
same,activity at 10 µM,"α2β3 GABAA receptors; read-out: efficacy, % of control current (GABA EC3-5 = 100%), α2β3, 10 µM",156 ± 9.7%
same,activity at 0.001 µM,"α1β3 GABAA receptors; read-out: efficacy, % of control current (GABA EC3-5 = 100%), α1β3, 1 nM",106 ± 1.9%
same,activity at 0.01 µM,"α1β3 GABAA receptors; read-out: efficacy, % of control current (GABA EC3-5 = 100%), α1β3, 10 nM",108 ± 5.1%
same,activity at 0.1 µM,"α1β3 GABAA receptors; read-out: efficacy, % of control current (GABA EC3-5 = 100%), α1β3, 100 nM",125 ± 4.6%
same,activity at 0.3 µM,"α1β3 GABAA receptors; read-out: efficacy, % of control current (GABA EC3-5 = 100%), α1β3, 300 nM",128 ± 8%
same,activity at 3 µM,"α1β3 GABAA receptors; read-out: efficacy, % of control current (GABA EC3-5 = 100%), α1β3, 3 µM",254 ± 28.7%
same,Hill slope (nH),α1β3 GABAA receptors; α1β3,1.1±0.5
same,"efficacy, % of control current (GABA EC3-5 = 100%)","α1β3 GABAA receptors; α1β3, 100 nM, 0.1 µM",117.8±5.9%
same,EC50,"α1β3 GABAA receptors; α1β3, co-applied with GABA EC3-5, read-out: EC50",1.47 µM and 2.2 µM
same,EC50,α6β3γ2 GABAA receptors; co-applied with GABA EC3-5,~2 µM and 2.3 µM
same,activity at 0.001 µM,"α6β3γ2 GABAA receptors; read-out: efficacy, % of control current (GABA EC3-5 = 100%), 1 nM",108 ± 5.9%
same,activity at 0.01 µM,"α6β3γ2 GABAA receptors; read-out: efficacy, % of control current (GABA EC3-5 = 100%), 10 nM",120 ± 7.1%
same,activity at 0.1 µM,"α6β3γ2 GABAA receptors; read-out: efficacy, % of control current (GABA EC3-5 = 100%), 100 nM",148 ± 8%
same,activity at 1 µM,"α6β3γ2 GABAA receptors; read-out: efficacy, % of control current (GABA EC3-5 = 100%), 1 µM",250 ± 18.9%
same,activity at 10 µM,"α6β3γ2 GABAA receptors; read-out: efficacy, % of control current (GABA EC3-5 = 100%), 10 µM",394 ± 35%
